Measured values as given in article PMC9144807, “Fluorine-18 Labeled Urea-Based Ligands Targeting Prostate-Specific Membrane Antigen (PSMA) with Increased Tumor and Decreased Renal Uptake” (Pharmaceuticals, 2022).
Like-named read-outs stand apart in the source and are kept apart here.

Key:
PC3(+) xenografts [1] = assay: In vivo biodistribution in PC3(+) xenograft mice; parameters: key to salivary gland T:M / Femur T:M / Blood T:M / Kidney T:M / Liver T:M: T:M = (%ID/g in tissue) / (%ID/g in muscle)
Description: (§1) PC3(−) (wildtype human prostate cancer cell line, PSMA negative) and PC3(+) (transfected with human PSMA) were provided by Dr. Hisataka Kobayashi. Cell lines were grown at 37 °C in 5% CO2 in RPMI-1640 supplemented with 10% FBS, 2 mM L-glutamine and Pen/Strep/Amphotericin B. PC3(+) and PC3(−) cell suspensions [2 × 10^6 cells; PBS:Matrigel (70:30)] from in vitro cell culture were subcutaneously implanted (right shoulder) into athymic mice (Athymic NCr- nu/nu, Charles River Laboratory, 4 weeks old) for use as positive and negative controls, respectively, for in vitro or in vivo studies. When tumors reached the appropriate size (>100 mg) the xenograft mice were used for in vivo biodistributions and imaging studies or the tumors were excised and further processed to obtain membrane preparations for in vitro assays as described previously.
(§2) Tumor-bearing mice (tumor weights: 0.1–0.8 g) were injected while awake via the tail vein with each of the tracers [0.74–3.7 MBq (20 to 100 µCi), 10 to 80 pmol] and euthanized (via CO2 inhalation) at selected times. […] Blood samples and tissues were excised from each animal, weighed, and radioactivity content was determined (Perkin Elmer 2480 Wizard3). Radioactivity content in the blood and each tissue was expressed as % injected dose per gram of tissue [%ID/g; (Formula (1))] and then normalized for body weight to a 20 g mouse (Formula (2)) from which Tissue:Muscle ratios [T:M; (Formula (3))] were determined as follows:(1) %ID/g =[counts per minute cpmtissue / tissue weight g]×100/cpmtotal injected dose
(§3) %ID/g (normalized to a 20 g mouse) = (%ID/g) × (body weight/20 g)(2)
(§4) (3) T:M=%ID/gtissue/%ID/gmuscle

PC3(−) xenografts = assay: In vivo biodistribution in PC3(−) xenograft mice (negative control); conditions: 60 min; for PC3(−) Tumor T:M: mean ± SE, n = 8–10
Description: as §1, §2, §3, §4

PSMA [2] = target: T1, PSMA (Homo sapiens, UniProt Q04609); assay: In vitro competition binding assay with [18F]DCFPyL as radioligand, PC3(+) tumor membrane preparations
T1 construct: expressed in transfected cells; host or cells: PC3(+) (PC3 human prostate cancer cells transfected with human PSMA), grown as xenograft tumors in athymic mice; tumor membrane preparations
T1 sequence (Q04609 whole entry): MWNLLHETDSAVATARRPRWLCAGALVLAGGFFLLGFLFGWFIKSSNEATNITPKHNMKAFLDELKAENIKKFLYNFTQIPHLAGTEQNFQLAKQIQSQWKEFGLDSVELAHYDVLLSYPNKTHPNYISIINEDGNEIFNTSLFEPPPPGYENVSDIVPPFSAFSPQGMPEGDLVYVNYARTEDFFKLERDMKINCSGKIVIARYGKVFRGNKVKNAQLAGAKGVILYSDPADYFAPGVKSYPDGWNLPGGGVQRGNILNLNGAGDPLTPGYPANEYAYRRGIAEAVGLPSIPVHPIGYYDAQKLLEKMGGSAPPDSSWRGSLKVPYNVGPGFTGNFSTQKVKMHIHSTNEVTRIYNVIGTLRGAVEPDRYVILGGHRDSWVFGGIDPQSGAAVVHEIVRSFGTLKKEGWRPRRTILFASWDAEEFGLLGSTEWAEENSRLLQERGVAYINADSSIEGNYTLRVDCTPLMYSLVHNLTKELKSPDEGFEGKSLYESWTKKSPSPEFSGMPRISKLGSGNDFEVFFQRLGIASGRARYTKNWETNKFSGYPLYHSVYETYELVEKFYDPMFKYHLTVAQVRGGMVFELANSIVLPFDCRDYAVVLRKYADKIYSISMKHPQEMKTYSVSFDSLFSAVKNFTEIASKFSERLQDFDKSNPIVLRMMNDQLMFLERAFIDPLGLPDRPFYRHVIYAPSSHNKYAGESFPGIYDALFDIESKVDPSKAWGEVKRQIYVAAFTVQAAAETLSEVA

PSMA [3] = target: T1, PSMA; assay: In vitro saturation binding assay with PC3(+) tumor membrane preparations
Description: as §1
In vitro saturation studies were performed to determine binding affinities (Kd) and PSMA expression levels (Bmax) using tumor membrane preparations from PC3(−) and PC3(+) PSMA xenografts (human prostate cancer cell line transfected with human PSMA; PC3(+)). […] Filter papers were collected, and the radioactive content was quantified by gamma counting (PerkinElmer 2480 Wizard3). […] Aliquots of each membrane preparation were taken for the determination of the protein concentration (Bradford method).

[4] = Fraction of intact tracer (parent) in blood and kidney by TLC; assay type: in vivo, mice; conditions: for %Parent compound in blood (TLC analysis): 60 min, mean ± SD, n = 2–5; for tissue uptake at 1 h: 60 min post-injection; for tissue uptake at 2 h: 120 min post-injection
Source text: In some cases, additional blood samples and/or tissue samples after gamma counting were taken for determining the fraction of intact radiolabeled tracer (parent) using thin-layer chromatography (TLC). For these TLC determinations: tissues were placed in equal volumes of acetonitrile and homogenized, or serum was obtained from the blood samples and mixed with an equal volume of acetonitrile. Following centrifugation of the samples, supernatants were collected and the radioactive content of the supernatants and pellets were determined. The supernatants were then applied to thin-layer chromatography (TLC) plates. The TLC plates were developed [solvent system: ethyl acetate (80%), methanol (10%) and acetic acid (10%)], and exposed on a phosphorimaging plate which was scanned the next day.

[5] = system: PC3(+) tumor xenograft mice; assay: Small animal PET imaging with ROI analysis, PC3(+) tumor xenograft mice; assay type: in vivo; conditions: 60 min post-injection
Description: Tumor-bearing mice were anesthetized with isoflurane/O2 (1.5–3% v/v) and imaged at various times after intravenous injection of each tracer [2.6 to 3.7 MBq (70 to 100 µCi)]. Whole body static PET images were obtained at 2 bed positions (FOV = 2.0 cm, total imaging time: 10 min) using a BioPET scanner (Bioscan Inc., Washington, DC, USA). The images were reconstructed by a 3-dimensional ordered-subsets expectation maximum (3D-OSEM).

PC3(+) xenografts [6] = assay: Blocking biodistribution study in PC3(+) xenografts, coinjection of non-radioactive DCFPyL; assay type: in vivo, mice; conditions: 60 min
Description: as §2, §3, §4

[7] = 15 min post-injection, mean ± SE
[8] = 30 min post-injection, mean ± SE
[9] = 60 min post-injection, mean ± SE
[10] = 120 min post-injection, mean ± SE
[11] = mouse, blood, intravenous, mean ± SE, read-out: Blood uptake, parent (corrected for metabolites)
[12] = mouse, kidney, intravenous, mean ± SE, read-out: Kidney uptake, parent (corrected for metabolites)

In the case of `O=C(O)CC[C@H](NC(=O)N[C@@H](CCCCNC(=O)CO/N=C\c1ccc([18F])cc1)C(=O)O)C(=O)O` [[^18F]1a, reference compound], the “Blood T:M” value (PC3(+) xenografts [1]; 60 min, mean ± SE, n = 8–10) is reported as 2.39 ± 0.14, the “Femur T:M” value (PC3(+) xenografts [1]; 60 min, mean ± SE, n = 8–10) is reported as 0.92 ± 0.09 and the “Kidney T:M” value (PC3(+) xenografts [1]; 60 min, mean ± SE, n = 8–10) is reported as 507.8 ± 44.0. The “Liver T:M” value (PC3(+) xenografts [1]; 60 min, mean ± SE, n = 8–10) was 35.7 ± 3.1, the “PC3(+) Tumor T:M” value (PC3(+) xenografts [1]; 60 min, mean ± SE, n = 8–10) was 103.0 ± 10.9 and the “PC3(−) Tumor T:M” value (PC3(−) xenografts) was 1.07 ± 0.08. The Ki (PSMA [2]) was 0.1 nM, the “decrease in Ki compared to Ki of DCFPyL” value (PSMA [2]; p = 0.006) was ~ 4 fold and the Kd (PSMA [3]; saturation assays, mean (SE), n = 3–5) was 0.238 nM. For the same compound, the “%Parent compound in blood (TLC analysis)” value [4] was 50.2 ± 1.4%.

In the case of `O=C(O)CCC(NC(=O)NC(CCCCNC(=O)c1ccc([18F])nc1)C(=O)O)C(=O)O` (stereo not shown) [[^18F]DCFPyL, 2-(3-(1-carboxy-5-[(6-[^18F]fluoropyridine-3-carbonyl)-amino]-pentyl)-ureido)-pentanedioic acid, reference compound], the “PC3(+) tumor uptake” value (PC3(+) xenografts [1]; 15 min) is reported as 18.6 %ID/g, the “salivary gland T:M” value (PC3(+) xenografts [1]; 15 min) is reported as 2.7 and the “Blood uptake, total radioactivity” value (PC3(+) xenografts [1]; [7]) is reported as 2.66 ± 0.12 %ID/g. The “Kidney uptake, total radioactivity” value (PC3(+) xenografts [1]; [7]) was 132.9 ± 6.6 %ID/g, the “Blood uptake, total radioactivity” value (PC3(+) xenografts [1]; [8]) was 1.03 ± 0.05 %ID/g and the “Kidney uptake, total radioactivity” value (PC3(+) xenografts [1]; [8]) was 126.9 ± 5.6 %ID/g. The “PC3(+) tumor uptake” value (PC3(+) xenografts [1]; 60 min) was 25.6 %ID/g, the “Radioactivity in the blood” value (PC3(+) xenografts [1]; 60 min (Figure 5A)) was 0.519 %ID/g and the “Blood T:M” value (PC3(+) xenografts [1]; 60 min, mean ± SE, n = 8–10) was 2.29 ± 0.15. The “Femur T:M” value (PC3(+) xenografts [1]; 60 min, mean ± SE, n = 8–10) was 0.90 ± 0.09, the “Kidney T:M” value (PC3(+) xenografts [1]; 60 min, mean ± SE, n = 8–10) was 695.1 ± 76.0 and the “Liver T:M” value (PC3(+) xenografts [1]; 60 min, mean ± SE, n = 8–10) was 9.88 ± 7.4. For the same compound, the “PC3(+) Tumor T:M” value (PC3(+) xenografts [1]; 60 min, mean ± SE, n = 8–10) was 124, the “Blood uptake, total radioactivity” value (PC3(+) xenografts [1]; [9]) was 0.52 ± 0.06 %ID/g and the “Kidney uptake, total radioactivity” value (PC3(+) xenografts [1]; [9]) was 147.7 ± 11.6 %ID/g. For the same compound, the “PC3(+) tumor uptake” value (PC3(+) xenografts [1]; 120 min) was 20.8 %ID/g, the “salivary gland T:M” value (PC3(+) xenografts [1]; 120 min) was 2.0 and the “Blood uptake, total radioactivity” value (PC3(+) xenografts [1]; [10]) was 0.13 ± 0.01 %ID/g. For the same compound, the “Kidney uptake, total radioactivity” value (PC3(+) xenografts [1]; [10]) was 50.2 ± 3.6 %ID/g, the Femur uptake (PC3(+) xenografts [1]; all times 15 to 120 min) was < 1 %ID/g and the “Femur T:M” value (PC3(+) xenografts [1]; all times except 120 min) was < 1.8. The “salivary gland radioactivity cleared” value (PC3(+) xenografts [1]; at 120 min) was 92%, the “decrease of kidney uptake from 15 to 120 min” value (PC3(+) xenografts [1]; mouse, in vivo) was 65% and the “decrease of salivary gland T:M from 15 to 120 min” value (PC3(+) xenografts [1]; mouse, in vivo) was 34%. The “increase in tumor T:M from 15 to 120 min” value (PC3(+) xenografts [1]; mouse, in vivo) was 11 fold, the “PC3(+) tumor uptake from ROI analysis of PET images” value [5] was 19 %ID/g and the “kidney uptake from ROI analysis of PET images” value [5] was 187 %ID/g. For the same compound, the “liver uptake from ROI analysis of PET images” value [5] was 3 %ID/g, the “increase of liver T:M in blocked group compared to tracer-only group” value (PC3(+) xenografts [6]) was 2.7 fold and the “PC3(+) tumor T:M of the blocked group” value (PC3(+) xenografts [6]; coinjection of DCFPyL 1000×) was 50. The “decrease of PC3(+) tumor T:M in blocked group compared to non-blocked group” value (PC3(+) xenografts [6]; coinjection of DCFPyL 1000×) was 60%, the “decrease of kidney T:M in blocked group” value (PC3(+) xenografts [6]; coinjection of DCFPyL 1000×) was 96% and the “decrease of spleen T:M in blocked group” value (PC3(+) xenografts [6]; coinjection of DCFPyL 1000×) was 81%. For the same compound, the “liver T:M of the blocked group” value (PC3(+) xenografts [6]; coinjection of DCFPyL 1000×) was 27, the “reduction in blood and most tissue uptakes (%ID/g) compared to tracer-only group” value (PC3(+) xenografts [6]; coinjection of DCFPyL 1000×) was > 50% and the “PC3(+) tumor T:M of the tracer-only group of the blocking study” value (PC3(+) xenografts [6]; no blocking dose) was 141. The “PC3(−) tumor uptake” value (PC3(−) xenografts) was 0.3 %ID/g, the “PC3(−) tumor uptake as fraction of uptake in PC3(+) tumors” value (PC3(−) xenografts) was < 2% and the “PC3(−) Tumor T:M” value (PC3(−) xenografts) was 1.50 ± 0.17. For the same compound, the “Bmax (PSMA expression level)” value (PSMA [3]; n = 5) was 13.95 ± 1.60 fmol/µg of protein, the “Blood uptake, parent (corrected for metabolites)” value [4, 7] was 1.06 ± 0.05 %ID/g and the “Kidney uptake, parent (corrected for metabolites)” value [4, 8] was 20.18 ± 0.72 %ID/g. The “%Parent compound in blood (TLC analysis)” value [4] was 49.9 ± 10.7%, the tissue uptake at 0.5 h ([4]; mouse, blood, intravenous, 30 min post-injection, mean ± SE, read-out: Blood uptake, parent (corrected for metabolites)) was 0.4 ± 0.02 %ID/g and the tissue uptake at 1 h [4, 11] was 0.26 ± 0.02 %ID/g. The tissue uptake at 2 h [4, 11] was 0.045 ± 0.003 %ID/g, the tissue uptake at 0.25 h ([4]; mouse, kidney, intravenous, 15 min post-injection, mean ± SE, read-out: Kidney uptake, parent (corrected for metabolites)) was 17.1 ± 0.84 %ID/g and the tissue uptake at 1 h [4, 12] was 17.6 ± 1.48 %ID/g. For the same compound, the tissue uptake at 2 h [4, 12] was 3.41 ± 0.46 %ID/g, the “% of parent in blood” value ([4]; nude, mouse, in vivo) was 50-40 and the “% of parent in kidney” value ([4]; nude, mouse, in vivo) was 16-7.
